Experiment [1] concerns the target T1, Rat α4β2 nAChR subtype (Rattus norvegicus, UniProt P09483+P12390).
T1 construct: from tissue; host or cells: rat cerebral cortex membranes (female Sprague-Dawley)
Kind of experiment: [3H]nicotine radioligand binding, membranes from rat cortex. The method, then: Preparation of membranes from rat cortex: Rats (female, Sprague-Dawley), weighing 150-250 g, were maintained on a 12 h light/dark cycle and were allowed free access to water and food supplied by PMI Nutrition International, Inc. Animals were anesthetized with 70% CO2, and then decapitated. Brains were removed and placed on an ice-cold platform. The cerebral cortex was removed and placed in 20 volumes (weight:volume) of ice-cold preparative buffer (137 mM NaCl, 10.7 mM KCl, 5.8 mM KH2PO4, 8 mM Na2HPO4, 20 mM HEPES (free acid), 5 mM iodoacetamide, 1.6 mM EDTA, pH 7.4); PMSF, dissolved in methanol to a final concentration of 100 μM, was added and the suspension was homogenized by Polytron. The homogenate was centrifuged at 18,000×g for 20 min at 4° C. and the resulting pellet was re-suspended in 20 volumes of ice-cold water. After 60 min incubation on ice, a new pellet was collected by centrifugation at 18,000×g for 20 min at 4° C. The final pellet was re-suspended in 10 volumes of buffer and stored at ˜20° C.
(§1) On the day of the assay, the frozen membranes were thawed and spun at 48,000×g for 20 min. The supernatant was decanted and discarded. The pellet was resuspended in Dulbecco's phosphate buffered saline (PBS, Life Technologies) pH 7.4 and homogenized with the Polytron for 6 seconds. Protein concentrations were determined using a Pierce BCA Protein Assay Kit, with bovine serum albumin as the standard (Pierce Chemical Company, Rockford, Ill.).
(§2) Assay: Membrane preparations (approximately 50 μg for human and 200-300 μg protein for rat α4β2) were incubated in PBS (50 μL and 100 μL respectively) in the presence of competitor compound (0.01 nM to 100 μM) and 5 nM [^3H]nicotine for 2-3 hours on ice. Incubation was terminated by rapid filtration on a multi-manifold tissue harvester (Brandel, Gaithersburg, Md.) using GF/B filters presoaked in 0.33% polyethyleneimine (w/v) to reduce non-specific binding. Tissue was rinsed 3 times in PBS, pH 7.4. Scintillation fluid was added to filters containing the washed tissue and allowed to equilibrate. Filters were then counted to determine radioactivity bound to the membranes by liquid scintillation counting (2200CA Tri-Carb LSC, Packard Instruments, 50% efficiency or Wallac Trilux 1450 MicroBeta, 40% efficiency, Perkin Elmer).
(§3) Data were expressed as disintegrations per minute (DPMs). Within each assay, each point had 2-3 replicates. The replicates for each point were averaged and plotted against the log of the drug concentration. IC50, which is the concentration of the compound that produces 50% inhibition of binding, was determined by least squares non-linear regression. Ki values were calculated using the Cheng-Prussof equation (1973): […]
(§4) where N is the concentration of [^3H]nicotine and Kd is the affinity of nicotine (3 nM, determined in a separate experiment).

The target in experiment [2] is T2, Human α4β2 nAChR subtype (Homo sapiens, UniProt P17787+P43681).
T2 construct: expressed in transfected cells; host or cells: SH-EP1 clonal cells
T2 sequence (P43681 29-627 limits assumed): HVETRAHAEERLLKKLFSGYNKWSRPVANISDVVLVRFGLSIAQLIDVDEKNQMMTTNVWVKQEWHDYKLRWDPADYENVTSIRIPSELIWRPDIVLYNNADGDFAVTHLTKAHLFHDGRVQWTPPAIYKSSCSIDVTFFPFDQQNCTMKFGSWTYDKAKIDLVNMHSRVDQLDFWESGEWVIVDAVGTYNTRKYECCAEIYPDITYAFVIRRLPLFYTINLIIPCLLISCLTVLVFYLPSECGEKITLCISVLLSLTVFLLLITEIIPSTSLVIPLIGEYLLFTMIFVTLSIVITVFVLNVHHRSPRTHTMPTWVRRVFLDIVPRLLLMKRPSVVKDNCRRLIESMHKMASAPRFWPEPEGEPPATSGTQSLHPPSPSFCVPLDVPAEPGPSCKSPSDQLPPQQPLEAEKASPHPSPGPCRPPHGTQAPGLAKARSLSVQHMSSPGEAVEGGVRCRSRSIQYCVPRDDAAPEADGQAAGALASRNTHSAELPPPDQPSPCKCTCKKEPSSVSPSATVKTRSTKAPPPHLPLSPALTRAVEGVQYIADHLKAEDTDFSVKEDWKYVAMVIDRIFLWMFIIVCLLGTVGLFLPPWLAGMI
T2 sequence (P17787 26-502): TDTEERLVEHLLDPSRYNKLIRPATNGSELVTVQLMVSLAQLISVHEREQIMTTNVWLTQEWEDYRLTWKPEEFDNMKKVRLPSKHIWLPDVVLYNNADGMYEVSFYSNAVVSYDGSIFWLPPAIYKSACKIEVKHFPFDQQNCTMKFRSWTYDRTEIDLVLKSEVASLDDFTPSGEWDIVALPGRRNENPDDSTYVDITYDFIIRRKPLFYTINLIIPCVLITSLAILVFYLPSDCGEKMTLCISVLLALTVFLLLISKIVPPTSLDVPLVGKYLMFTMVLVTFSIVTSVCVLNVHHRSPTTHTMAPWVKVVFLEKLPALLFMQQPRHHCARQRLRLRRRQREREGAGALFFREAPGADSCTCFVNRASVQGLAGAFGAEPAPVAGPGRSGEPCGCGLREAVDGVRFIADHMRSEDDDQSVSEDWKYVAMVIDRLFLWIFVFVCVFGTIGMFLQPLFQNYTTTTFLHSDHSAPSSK
Kind of experiment: [3H]nicotine radioligand binding, membranes from SH-EP1/human α4β2 clonal cells. The method, then:
Preparation of membranes from SH-EP1/human α4β2 clonal cells:
Cell pellets from 40 150 mm culture dishes were pooled, and homogenized by Polytron (Kinematica GmbH, Switzerland) in 20 milliliters of ice-cold preparative buffer. The homogenate was centrifuged at 48,000 g for 20 minutes at 4° C. The resulting pellet was re-suspended in 20 mL of ice-cold preparative buffer and stored at ˜20° C.
as §1, §2, §3, §4

Setting [3] is: [3H]nicotine, "Failed HTS" = failed to bind sufficiently in high through-put screening to warrant Ki determination.
The mark [4] stands for this setting: [3H]nicotine, "Failed HTS" = failed to bind sufficiently in high through-put screening to warrant Ki determination, read-out: Human α4β2 Ki.
The mark [5] stands for this setting: [3H]nicotine, "Failed HTS" = failed to bind sufficiently in high through-put screening to warrant Ki determination, read-out: Rat α4β2 Ki.

pKi: −log10 of the molar value. Where two headings read alike, the source gives them in different places.

T1 sequence (P09483 31-630): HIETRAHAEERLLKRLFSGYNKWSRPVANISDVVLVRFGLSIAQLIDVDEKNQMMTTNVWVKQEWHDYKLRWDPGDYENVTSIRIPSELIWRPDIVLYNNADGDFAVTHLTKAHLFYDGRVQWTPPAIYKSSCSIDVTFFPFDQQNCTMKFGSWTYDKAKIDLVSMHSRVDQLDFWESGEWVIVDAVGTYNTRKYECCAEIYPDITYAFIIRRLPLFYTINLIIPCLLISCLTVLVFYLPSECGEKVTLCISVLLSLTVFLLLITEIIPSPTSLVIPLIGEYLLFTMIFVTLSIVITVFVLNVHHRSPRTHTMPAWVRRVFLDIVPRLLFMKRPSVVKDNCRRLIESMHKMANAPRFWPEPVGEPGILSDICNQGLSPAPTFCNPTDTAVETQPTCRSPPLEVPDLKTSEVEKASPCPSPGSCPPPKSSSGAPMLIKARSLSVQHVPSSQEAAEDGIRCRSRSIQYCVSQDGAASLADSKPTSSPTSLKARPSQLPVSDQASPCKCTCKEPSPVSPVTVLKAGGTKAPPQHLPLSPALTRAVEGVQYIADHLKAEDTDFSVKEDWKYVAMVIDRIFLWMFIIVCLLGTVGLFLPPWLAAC
T1 sequence (P12390 25-500): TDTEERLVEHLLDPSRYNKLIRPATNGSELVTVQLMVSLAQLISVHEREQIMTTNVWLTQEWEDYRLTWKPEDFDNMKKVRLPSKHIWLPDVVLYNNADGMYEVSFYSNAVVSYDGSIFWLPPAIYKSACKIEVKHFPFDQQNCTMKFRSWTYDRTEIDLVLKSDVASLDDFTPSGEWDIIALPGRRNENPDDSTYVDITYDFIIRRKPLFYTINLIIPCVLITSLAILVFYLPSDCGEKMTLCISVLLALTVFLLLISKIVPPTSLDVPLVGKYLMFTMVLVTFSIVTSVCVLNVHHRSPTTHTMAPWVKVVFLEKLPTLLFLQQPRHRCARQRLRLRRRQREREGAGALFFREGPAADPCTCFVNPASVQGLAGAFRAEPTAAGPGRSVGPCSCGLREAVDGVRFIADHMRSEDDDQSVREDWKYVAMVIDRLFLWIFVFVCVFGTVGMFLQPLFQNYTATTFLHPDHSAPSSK

As for `Cc1nc2cc3c(cc2nc1C)CCNCC3` [B], the pKi (in general, the Ki on a negative log10 scale, so that one unit is a factor of ten) was 6.23 in experiment [1] and 7.01 in experiment [2].
On to `CCc1nc2cc3c(cc2nc1C)CCNCC3` [C], for which the “Rat α4β2 Ki (nM)” value in experiment [1] (setting [3]) was “Failed HTS”. Besides, the pKi in experiment [2] (setting [4]) was 6.51.
Turning to `CCc1nc2cc3c(cc2nc1CC)CCNCC3` [D], in experiment [1] (setting [3]), the “Rat α4β2 Ki (nM)” value is “Failed HTS”. Besides, the pKi in experiment [2] (setting [4]) was 6.34.
For the molecule `Cc1cnc2cc3c(cc2n1)CCNCC3` [E], the pKi was 7.20 in experiment [1] (setting [5]) and 7.43 in experiment [2] (setting [4]).
Take `c1cnc2cc3c(cc2c1)CCNCC3` [F]: the pKi in experiment [1] (setting [5]) was 8.52; in experiment [2] (setting [4]), 9.03.
Take `O=c1cnc2cc3c(cc2[nH]1)CCNCC3` [G]: the pKi in experiment [1] (setting [5]) was 6.92; in experiment [2] (setting [4]), 7.20.
Turning to `COc1cnc2cc3c(cc2n1)CCNCC3` [H], the pKi was 7.11 in experiment [1] (setting [5]) and 7.60 in experiment [2] (setting [4]).
For `c1cncc(-c2cnc3cc4c(cc3n2)CCNCC4)c1` [I], the “Rat α4β2 Ki (nM)” value in experiment [1] (setting [3]) is “Failed HTS”. In experiment [2], this molecule showed a negative-log Ki (pKi) of 5.13.
As to `Clc1cnc2cc3c(cc2n1)CCNCC3` [J], the figures for the pKi in experiment [1] and in experiment [2] were 7.92 and 7.35, respectively.
Turning to `CNc1cnc2cc3c(cc2n1)CCNCC3` [K], the “Rat α4β2 Ki (nM)” value in experiment [1] (setting [3]) was “Failed HTS”. Besides, in experiment [2] (setting [3]), the “Human α4β2 Ki (nM)” value was “Failed HTS”.
For the molecule `CN(C)c1cnc2cc3c(cc2n1)CCNCC3` [L], in experiment [1] (setting [3]), the “Rat α4β2 Ki (nM)” value is recorded as “Failed HTS”. For the same molecule, in experiment [2] (setting [4]), the pKi was 6.13.
On to `c1ccc(CNc2cnc3cc4c(cc3n2)CCNCC4)cc1` [M], for which the “Rat α4β2 Ki (nM)” value in experiment [1] (setting [3]) was “Failed HTS”. Besides, the pKi in experiment [2] (setting [4]) is 6.28.
With `O=c1ccc2cc3c(cc2[nH]1)CCNCC3` [N], the “Rat α4β2 Ki (nM)” value in experiment [1] (setting [3]) is recorded as “Failed HTS”. Moreover, the “Human α4β2 Ki (nM)” value in experiment [2] (setting [3]) is “Failed HTS”.
Regarding `Clc1ccc2cc3c(cc2n1)CCNCC3` [O], the pKi in experiment [1] is 8.51; in experiment [2], 9.32.
As for `COc1ccc2cc3c(cc2n1)CCNCC3` [P], the “Rat α4β2 Ki (nM)” value in experiment [1] (setting [3]) was “Failed HTS”. Further, the pKi in experiment [2] (setting [4]) was 5.92.
Consider `Cc1ccc2cc3c(cc2n1)CCNCC3` [Q], for which the results for the pKi in experiment [1] (setting [5]) and in experiment [2] (setting [4]) were 7.35 and 7.96, respectively.
On to `CN1CCc2cc3nccnc3cc2CC1` [R], for which the “Rat α4β2 Ki (nM)” value in experiment [1] (setting [3]) was “Failed HTS”. This molecule also showed a pKi in experiment [2] of 6.68.

The values are drawn from patent US20120053168A1, “FUSED BENZOAZEPINES AS NEURONAL NICOTINIC ACETYLCHOLINE RECEPTOR LIGANDS” (Targacept, Inc., priority 2009, published 2012).
